Source: EP1071442B9, “METHODS AND COMPOSITIONS FOR PEPTIDE SYNTHESIS (T-20)” (priority 1998, dated 1999)
Residues, ends and D or L forms follow the SMILES beside them. *: point of attachment. NHTrityl = c1ccc(C(N*)(c2ccccc2)c2ccccc2)cc1; Fmoc = O=C(OCC1c2ccccc2-c2ccccc21)*; Boc = CC(C)(C)OC(=O)*; OtBu = CC(C)(C)O*; tBu = CC(C)(C)*

What was measured:
[1] = thermal stability of T-20 fragments (water-saturated or dry) at elevated temperatures, purity change by HPLC; type: physicochemical
Description: A series of experiments were conducted at to characterize the thermal stability of the intermediate T-20 fragments. T-20 fragments were saturated with water, filtered and then placed in enclosed containers and exposed to elevated temperatures. At several time points samples were collected and analyzed by HPLC methods to access the purity changes. Stability of the dry T-20 fragments was also characterized by thermogravimetric analysis (TGA).

For CC(C)C[C@H](NC(=O)[C@H](CCC(=O)OC(C)(C)C)NC(=O)[C@H](CC(C)C)NC(=O)[C@H](CC(C)C)NC(=O)[C@H](CCC(=O)OC(C)(C)C)NC(=O)[C@H](CCC(=O)NC(c1ccccc1)(c1ccccc1)c1ccccc1)NC(=O)[C@H](CCC(=O)OC(C)(C)C)NC(=O)[C@H](CC(=O)NC(c1ccccc1)(c1ccccc1)c1ccccc1)NC(=O)[C@H](CCCCNC(=O)OC(C)(C)C)NC(=O)[C@H](CCC(=O)OC(C)(C)C)NC(=O)OCC1c2ccccc2-c2ccccc21)C(=O)O [F(17-26)-OH] (Fmoc-E(OtBu)K(Boc)D(NHTrityl)E(OtBu)E(NHTrityl)E(OtBu)LLE(OtBu)L-OH), which “stability in 1% TFA/DCM” value is on record?
Its value is 1 %/day.

With CC(C)C[C@H](NC(=O)[C@H](COC(C)(C)C)NC(=O)[C@H](C)NC(=O)[C@H](Cc1cn(C(=O)OC(C)(C)C)c2ccccc12)NC(=O)[C@H](CCCCNC(=O)OC(C)(C)C)NC(=O)[C@H](CC(=O)OC(C)(C)C)NC(=O)OCC1c2ccccc2-c2ccccc21)C(=O)N[C@@H](Cc1cn(C(=O)OC(C)(C)C)c2ccccc12)C(=O)N[C@@H](CC(=O)NC(c1ccccc1)(c1ccccc1)c1ccccc1)C(=O)N[C@@H](Cc1cn(C(=O)OC(C)(C)C)c2ccccc12)C(=O)N[C@@H](Cc1ccccc1)C(N)=O [F(27-36)-NH2] (Fmoc-D(OtBu)K(Boc)W(Boc)AS(tBu)LW(Boc)D(NHTrityl)W(Boc)F-NH2) as the compound, how does the degradation ([1]; after 24 hours at 80 °C) read?
Its degradation is 1.4%.

And the stability to drying ([1]; drying at 40 °C)?
The stability to drying was “stable”.
